Source: patent publication US12599556B2, “Ophthalmic compositions” (BIOTHERAVISION, INC., priority 2021, dated 2026)

Test: Stability study: assay and related substances by gradient HPLC
Assay type: physicochemical
Description: The stability of the exemplary compositions was investigated using gradient high performance liquid chromatography analysis at different storage time points of 1 month, 3 months, 6 months, 9 months, and 11 months. The amount of each active ingredient and related degradation substances, pH, osmolality, particle size distribution, and viscosity were measured for each composition at each time point.
The suspension slurry was not irradiation sterilized in the preparation of Panel 1 formulations.
The results of the Panel II stability studies at the accelerated condition (40° C.) for the compositions shown in Table 4 are summarized in Table 6. The suspension slurry of Panel 2 formulations F7, F8, and F9 were irradiation sterilized.

Compound | Stability of ketorolac tromethamine in the compositions (all compositions of the stability studies) | Degradation of loteprednol etabonate (stability studies)
O=C(c1ccccc1)c1ccc2n1CCC2C(=O)O (centres unmarked) [Ketorolac tromethamine, 2-amino-2-(hydroxymethyl)propane-1,3-diol; 5-benzoyl-2,3-dihydro-1H-pyrrolizine-1-carboxylic acid] | exhibited stability | –
CCOC(=O)O[C@]1(C(=O)OCCl)CC[C@H]2[C@@H]3CCC4=CC(=O)C=C[C@]4(C)[C@H]3[C@@H](O)C[C@@]21C [loteprednol etabonate, chloromethyl (8S,9S,10R,11S,13S,14S,17R)-17-ethoxycarbonyloxy-11-hydroxy-10,13-dimethyl-3-oxo-7,8,9,11,12,14,15,16-octahydro-6H-cyclopenta[a]phenanthrene-17-carboxylate] | – | pH dependency
